From ChEMBL document CHEMBL3046635, “Synthesis and Herbicidal Activity of New Pyrazole-4-carboxamide Derivatives” (J Pestic Sci, 2004)
Active and inactive are the calls of the source.

tested on: Pontederia vaginalis; assay: Pre-emergence herbicidal activity against Monochoria vaginalis assessed as bleaching of stem/leaf parts; assay type: functional, organism-based; conditions: not given

Compound	Activity
Cn1cc(C(=O)NCc2cccc(Cl)c2)c(OCc2cccc(C(F)(F)F)c2)n1	Active
C#CCNC(=O)c1cn(C)nc1OCc1cccc(C(F)(F)F)c1	Active
Cc1c(C(=O)NOc2ccc(F)cc2F)c(OCc2cccc(C(F)(F)F)c2)nn1C	Active

tested on: Cyperus difformis; assay: Pre-emergence herbicidal activity against Cyperus difformis assessed as bleaching of stem/leaf parts; assay type: functional, organism-based; conditions: not given

Compound	Activity
Cn1cc(C(=O)NCc2cccc(Cl)c2)c(OCc2cccc(C(F)(F)F)c2)n1	Active
C#CCNC(=O)c1cn(C)nc1OCc1cccc(C(F)(F)F)c1	Active
Cc1c(C(=O)NOc2ccc(F)cc2F)c(OCc2cccc(C(F)(F)F)c2)nn1C	Active

tested on: Eleocharis acicularis; assay: Pre-emergence herbicidal activity against Eleocharis acicularis at 500 g a.i/ha measured after 14 days; assay type: functional, organism-based; conditions: not given

Compound	Activity
Cn1cc(C(=O)NCc2cccc(Cl)c2)c(OCc2cccc(C(F)(F)F)c2)n1	inactive
C#CCNC(=O)c1cn(C)nc1OCc1cccc(C(F)(F)F)c1	inactive
Cc1c(C(=O)NOc2ccc(F)cc2F)c(OCc2cccc(C(F)(F)F)c2)nn1C	inactive

tested on: Eleocharis acicularis; assay: Pre-emergence herbicidal activity against Eleocharis acicularis assessed as bleaching of stem/leaf parts; assay type: functional, organism-based; conditions: not given

Compound	Activity
Cn1cc(C(=O)NCc2cccc(Cl)c2)c(OCc2cccc(C(F)(F)F)c2)n1	Active
C#CCNC(=O)c1cn(C)nc1OCc1cccc(C(F)(F)F)c1	Active
Cc1c(C(=O)NOc2ccc(F)cc2F)c(OCc2cccc(C(F)(F)F)c2)nn1C	Active

tested on: Schoenoplectiella juncoides; assay: Pre-emergence herbicidal activity against Schoenoplectiella juncoides assessed as bleaching of stem/leaf parts; assay type: functional, organism-based; conditions: not given

Compound	Activity
Cn1cc(C(=O)NCc2cccc(Cl)c2)c(OCc2cccc(C(F)(F)F)c2)n1	Active
C#CCNC(=O)c1cn(C)nc1OCc1cccc(C(F)(F)F)c1	Active
Cc1c(C(=O)NOc2ccc(F)cc2F)c(OCc2cccc(C(F)(F)F)c2)nn1C	Active

tested on: Ammannia multiflora; assay: Post-emergence herbicidal activity against Ammannia multiflora assessed as bleaching of stem/leaf parts; assay type: functional, organism-based; conditions: not given; note: test concentration or dose not given here

Compound	Activity
Cn1cc(C(=O)NCc2cccc(Cl)c2)c(OCc2cccc(C(F)(F)F)c2)n1	Active
C#CCNC(=O)c1cn(C)nc1OCc1cccc(C(F)(F)F)c1	Active
Cc1c(C(=O)NOc2ccc(F)cc2F)c(OCc2cccc(C(F)(F)F)c2)nn1C	Active

tested on: Elatine triandra; assay: Pre-emergence herbicidal activity against Elatine triandra assessed as bleaching of stem/leaf parts; assay type: functional, organism-based; conditions: not given

Compound	Activity
Cn1cc(C(=O)NCc2cccc(Cl)c2)c(OCc2cccc(C(F)(F)F)c2)n1	Active
C#CCNC(=O)c1cn(C)nc1OCc1cccc(C(F)(F)F)c1	Active
Cc1c(C(=O)NOc2ccc(F)cc2F)c(OCc2cccc(C(F)(F)F)c2)nn1C	Active

tested on: Lindernia procumbens; assay: Pre-emergence herbicidal activity against Lindernia procumbens at 500 g a.i/ha measured after 14 days; assay type: functional, organism-based; conditions: not given

Compound	Activity
Cn1cc(C(=O)NCc2cccc(Cl)c2)c(OCc2cccc(C(F)(F)F)c2)n1	inactive
C#CCNC(=O)c1cn(C)nc1OCc1cccc(C(F)(F)F)c1	inactive
Cc1c(C(=O)NOc2ccc(F)cc2F)c(OCc2cccc(C(F)(F)F)c2)nn1C	inactive

tested on: Elatine triandra; assay: Post-emergence herbicidal activity against Elatine triandra assessed as bleaching of stem/leaf parts; assay type: functional, organism-based; conditions: not given; note: test concentration or dose not given here

Compound	Activity
Cn1cc(C(=O)NCc2cccc(Cl)c2)c(OCc2cccc(C(F)(F)F)c2)n1	Active
C#CCNC(=O)c1cn(C)nc1OCc1cccc(C(F)(F)F)c1	Active
Cc1c(C(=O)NOc2ccc(F)cc2F)c(OCc2cccc(C(F)(F)F)c2)nn1C	Active

tested on: Elatine triandra; assay: Pre-emergence herbicidal activity against Elatine triandra at 500 g a.i/ha measured after 14 days; assay type: functional, organism-based; conditions: not given

Compound	Activity
Cn1cc(C(=O)NCc2cccc(Cl)c2)c(OCc2cccc(C(F)(F)F)c2)n1	inactive
C#CCNC(=O)c1cn(C)nc1OCc1cccc(C(F)(F)F)c1	inactive
Cc1c(C(=O)NOc2ccc(F)cc2F)c(OCc2cccc(C(F)(F)F)c2)nn1C	inactive

tested on: Oryza sativa; assay: Phytotoxicity against Oryza sativa cv. Koshihikari (rice) at 500 g a.i/ha measured after 14 days; assay type: organism-based; conditions: in vivo, 336 h

Compound	Activity
Cn1cc(C(=O)NCc2cccc(Cl)c2)c(OCc2cccc(C(F)(F)F)c2)n1	Non-toxic
C#CCNC(=O)c1cn(C)nc1OCc1cccc(C(F)(F)F)c1	Non-toxic
Cc1c(C(=O)NOc2ccc(F)cc2F)c(OCc2cccc(C(F)(F)F)c2)nn1C	Non-toxic

tested on: Ammannia multiflora; assay: Pre-emergence herbicidal activity against Ammannia multiflora assessed as bleaching of stem/leaf parts; assay type: functional, organism-based; conditions: not given

Compound	Activity
Cn1cc(C(=O)NCc2cccc(Cl)c2)c(OCc2cccc(C(F)(F)F)c2)n1	Active
C#CCNC(=O)c1cn(C)nc1OCc1cccc(C(F)(F)F)c1	Active
Cc1c(C(=O)NOc2ccc(F)cc2F)c(OCc2cccc(C(F)(F)F)c2)nn1C	Active

tested on: Cyperus difformis; assay: Pre-emergence herbicidal activity against Cyperus difformis at 500 g a.i/ha measured after 14 days; assay type: functional, organism-based; conditions: not given

Compound	Activity
Cn1cc(C(=O)NCc2cccc(Cl)c2)c(OCc2cccc(C(F)(F)F)c2)n1	inactive
C#CCNC(=O)c1cn(C)nc1OCc1cccc(C(F)(F)F)c1	inactive
Cc1c(C(=O)NOc2ccc(F)cc2F)c(OCc2cccc(C(F)(F)F)c2)nn1C	inactive

tested on: Rotala indica; assay: Post-emergence herbicidal activity against Rotala indica assessed as bleaching of stem/leaf parts; assay type: functional, organism-based; conditions: not given; note: test concentration or dose not given here

Compound	Activity
Cn1cc(C(=O)NCc2cccc(Cl)c2)c(OCc2cccc(C(F)(F)F)c2)n1	Active
C#CCNC(=O)c1cn(C)nc1OCc1cccc(C(F)(F)F)c1	Active
Cc1c(C(=O)NOc2ccc(F)cc2F)c(OCc2cccc(C(F)(F)F)c2)nn1C	Active

tested on: Cyperus difformis; assay: Post-emergence herbicidal activity against Cyperus difformis assessed as bleaching of stem/leaf parts; assay type: functional, organism-based; conditions: not given; note: test concentration or dose not given here

Compound	Activity
Cn1cc(C(=O)NCc2cccc(Cl)c2)c(OCc2cccc(C(F)(F)F)c2)n1	Active
C#CCNC(=O)c1cn(C)nc1OCc1cccc(C(F)(F)F)c1	Active
Cc1c(C(=O)NOc2ccc(F)cc2F)c(OCc2cccc(C(F)(F)F)c2)nn1C	Active

tested on: Echinochloa oryzicola; assay: Post-emergence herbicidal activity against Echinochloa oryzicola assessed as bleaching of stem/leaf parts; assay type: functional, organism-based; conditions: not given; note: test concentration or dose not given here

Compound	Activity
Cn1cc(C(=O)NCc2cccc(Cl)c2)c(OCc2cccc(C(F)(F)F)c2)n1	Active
C#CCNC(=O)c1cn(C)nc1OCc1cccc(C(F)(F)F)c1	Active
Cc1c(C(=O)NOc2ccc(F)cc2F)c(OCc2cccc(C(F)(F)F)c2)nn1C	Active

tested on: Pontederia vaginalis; assay: Pre-emergence herbicidal activity against Monochoria vaginalis at 500 g a.i/ha measured after 14 days; assay type: functional, organism-based; conditions: not given

Compound	Activity
Cn1cc(C(=O)NCc2cccc(Cl)c2)c(OCc2cccc(C(F)(F)F)c2)n1	inactive
C#CCNC(=O)c1cn(C)nc1OCc1cccc(C(F)(F)F)c1	inactive
Cc1c(C(=O)NOc2ccc(F)cc2F)c(OCc2cccc(C(F)(F)F)c2)nn1C	inactive

tested on: Lindernia procumbens; assay: Post-emergence herbicidal activity against Lindernia procumbens assessed as bleaching of stem/leaf parts; assay type: functional, organism-based; conditions: not given; note: test concentration or dose not given here

Compound	Activity
Cn1cc(C(=O)NCc2cccc(Cl)c2)c(OCc2cccc(C(F)(F)F)c2)n1	Active
C#CCNC(=O)c1cn(C)nc1OCc1cccc(C(F)(F)F)c1	Active
Cc1c(C(=O)NOc2ccc(F)cc2F)c(OCc2cccc(C(F)(F)F)c2)nn1C	Active

tested on: Echinochloa oryzicola; assay: Pre-emergence herbicidal activity against Echinochloa oryzicola assessed as bleaching of stem/leaf parts; assay type: functional, organism-based; conditions: not given

Compound	Activity
Cn1cc(C(=O)NCc2cccc(Cl)c2)c(OCc2cccc(C(F)(F)F)c2)n1	Active
C#CCNC(=O)c1cn(C)nc1OCc1cccc(C(F)(F)F)c1	Active
Cc1c(C(=O)NOc2ccc(F)cc2F)c(OCc2cccc(C(F)(F)F)c2)nn1C	Active

tested on: Rotala indica; assay: Pre-emergence herbicidal activity against Rotala indica at 500 g a.i/ha measured after 14 days; assay type: functional, organism-based; conditions: not given

Compound	Activity
Cn1cc(C(=O)NCc2cccc(Cl)c2)c(OCc2cccc(C(F)(F)F)c2)n1	inactive
C#CCNC(=O)c1cn(C)nc1OCc1cccc(C(F)(F)F)c1	inactive
Cc1c(C(=O)NOc2ccc(F)cc2F)c(OCc2cccc(C(F)(F)F)c2)nn1C	inactive

tested on: Ammannia multiflora; assay: Pre-emergence herbicidal activity against Ammannia multiflora at 500 g a.i/ha measured after 14 days; assay type: functional, organism-based; conditions: not given

Compound	Activity
Cn1cc(C(=O)NCc2cccc(Cl)c2)c(OCc2cccc(C(F)(F)F)c2)n1	inactive
C#CCNC(=O)c1cn(C)nc1OCc1cccc(C(F)(F)F)c1	inactive
Cc1c(C(=O)NOc2ccc(F)cc2F)c(OCc2cccc(C(F)(F)F)c2)nn1C	inactive

tested on: Echinochloa oryzicola; assay: Pre-emergence herbicidal activity against Echinochloa oryzicola at 500 g a.i/ha measured after 14 days; assay type: functional, organism-based; conditions: not given

Compound	Activity
Cn1cc(C(=O)NCc2cccc(Cl)c2)c(OCc2cccc(C(F)(F)F)c2)n1	inactive
C#CCNC(=O)c1cn(C)nc1OCc1cccc(C(F)(F)F)c1	inactive
Cc1c(C(=O)NOc2ccc(F)cc2F)c(OCc2cccc(C(F)(F)F)c2)nn1C	inactive

tested on: Eleocharis acicularis; assay: Post-emergence herbicidal activity against Eleocharis acicularis assessed as bleaching of stem/leaf parts; assay type: functional, organism-based; conditions: not given; note: test concentration or dose not given here

Compound	Activity
Cn1cc(C(=O)NCc2cccc(Cl)c2)c(OCc2cccc(C(F)(F)F)c2)n1	Active
C#CCNC(=O)c1cn(C)nc1OCc1cccc(C(F)(F)F)c1	Active
Cc1c(C(=O)NOc2ccc(F)cc2F)c(OCc2cccc(C(F)(F)F)c2)nn1C	Active

tested on: Schoenoplectiella juncoides; assay: Post-emergence herbicidal activity against Schoenoplectiella juncoides assessed as bleaching of stem/leaf parts; assay type: functional, organism-based; conditions: not given; note: test concentration or dose not given here

Compound	Activity
Cn1cc(C(=O)NCc2cccc(Cl)c2)c(OCc2cccc(C(F)(F)F)c2)n1	Active
C#CCNC(=O)c1cn(C)nc1OCc1cccc(C(F)(F)F)c1	Active
Cc1c(C(=O)NOc2ccc(F)cc2F)c(OCc2cccc(C(F)(F)F)c2)nn1C	Active

tested on: Rotala indica; assay: Pre-emergence herbicidal activity against Rotala indica assessed as bleaching of stem/leaf parts; assay type: functional, organism-based; conditions: not given

Compound	Activity
Cn1cc(C(=O)NCc2cccc(Cl)c2)c(OCc2cccc(C(F)(F)F)c2)n1	Active
C#CCNC(=O)c1cn(C)nc1OCc1cccc(C(F)(F)F)c1	Active
Cc1c(C(=O)NOc2ccc(F)cc2F)c(OCc2cccc(C(F)(F)F)c2)nn1C	Active

tested on: Schoenoplectiella juncoides; assay: Pre-emergence herbicidal activity against Schoenoplectiella juncoides at 500 g a.i/ha measured after 14 days; assay type: functional, organism-based; conditions: not given

Compound	Activity
Cn1cc(C(=O)NCc2cccc(Cl)c2)c(OCc2cccc(C(F)(F)F)c2)n1	inactive
C#CCNC(=O)c1cn(C)nc1OCc1cccc(C(F)(F)F)c1	inactive
Cc1c(C(=O)NOc2ccc(F)cc2F)c(OCc2cccc(C(F)(F)F)c2)nn1C	Active

tested on: Pontederia vaginalis; assay: Post-emergence herbicidal activity against Monochoria vaginalis assessed as bleaching of stem/leaf parts; assay type: functional, organism-based; conditions: not given; note: test concentration or dose not given here

Compound	Activity
Cn1cc(C(=O)NCc2cccc(Cl)c2)c(OCc2cccc(C(F)(F)F)c2)n1	Active
C#CCNC(=O)c1cn(C)nc1OCc1cccc(C(F)(F)F)c1	Active
Cc1c(C(=O)NOc2ccc(F)cc2F)c(OCc2cccc(C(F)(F)F)c2)nn1C	Active

tested on: Lindernia procumbens; assay: Pre-emergence herbicidal activity against Lindernia procumbens assessed as bleaching of stem/leaf parts; assay type: functional, organism-based; conditions: not given

Compound	Activity
Cn1cc(C(=O)NCc2cccc(Cl)c2)c(OCc2cccc(C(F)(F)F)c2)n1	Active
C#CCNC(=O)c1cn(C)nc1OCc1cccc(C(F)(F)F)c1	Active
Cc1c(C(=O)NOc2ccc(F)cc2F)c(OCc2cccc(C(F)(F)F)c2)nn1C	Active
